Consider 26 molecules from patent publication US20250282785A1, “PYRROLIDINONE DERIVATIVES AS INHIBITORS OF NF KAPPA B INDUCING KINASE” (priority 2022, published 2025).

Molecules are shown by their SMILES. Like-named read-outs stand apart in the source and are kept apart here.

Experiment [1] deals with Recombinant Human NF-Kappab-Inducing Kinase (NIK/MAP3K14) (Homo sapiens, UniProt Q99558). Kind of experiment: Inhibition of auto-phosphorylation of recombinant human NIK/MAP3K14 (AlphaScreen). It counts as biochemical. In outline:
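GST-tagged NIK (1 nM) auto-phosphorylation with 5 µM ATP in Tris pH 7.5/MgCl2 buffer, 0.7% DMSO, 2 h at 25 °C. Phospho-IKK Ser176/180 antibody detected by AlphaScreen beads. Signal normalized to full-enzyme and no-ATP controls; IC50 from sigmoidal fit of % inhibition vs log concentration.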
In general terms: Bead proximity is the source of the signal in Alpha formats.

Experiment [2] has as its system p-IKKα levels in L363 (NIK translocated multiple myeloma) cells. Kind of experiment: Effect of compounds on p-IKKα levels in L363 cells (AlphaLISA SureFire Ultra). It counts as cell-based. The following applies: Homo sapiens, read-out: Assay 2 IC50. In outline:
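L363 myeloma cells were BAFF-stimulated (250 ng/ml) overnight in DMEM/0.5% BSA, then exposed 6 h at 37° C to compound (11-point 1:3 series, 0.3% DMSO) with BAFF plus 10 uM MG132. p-IKKα (Ser 176/180) was read by AlphaLISA SureFire Ultra in lysates. IC50 came from sigmoidal fits normalized to stimulated and unstimulated controls.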

[3] abbreviates: NIK/MAP3K14 auto-phosphorylation, 5 microM ATP, 1 nM enzyme, 2 h at 25° C., average of values, read-out: Assay 1 IC50.
The mark [4] stands for this setting: L-363, L363 cells, BAFF stimulated, MG132, 6 h, average of values.

Chain of Recombinant Human NF-Kappab-Inducing Kinase (NIK/MAP3K14) (Q99558 whole entry): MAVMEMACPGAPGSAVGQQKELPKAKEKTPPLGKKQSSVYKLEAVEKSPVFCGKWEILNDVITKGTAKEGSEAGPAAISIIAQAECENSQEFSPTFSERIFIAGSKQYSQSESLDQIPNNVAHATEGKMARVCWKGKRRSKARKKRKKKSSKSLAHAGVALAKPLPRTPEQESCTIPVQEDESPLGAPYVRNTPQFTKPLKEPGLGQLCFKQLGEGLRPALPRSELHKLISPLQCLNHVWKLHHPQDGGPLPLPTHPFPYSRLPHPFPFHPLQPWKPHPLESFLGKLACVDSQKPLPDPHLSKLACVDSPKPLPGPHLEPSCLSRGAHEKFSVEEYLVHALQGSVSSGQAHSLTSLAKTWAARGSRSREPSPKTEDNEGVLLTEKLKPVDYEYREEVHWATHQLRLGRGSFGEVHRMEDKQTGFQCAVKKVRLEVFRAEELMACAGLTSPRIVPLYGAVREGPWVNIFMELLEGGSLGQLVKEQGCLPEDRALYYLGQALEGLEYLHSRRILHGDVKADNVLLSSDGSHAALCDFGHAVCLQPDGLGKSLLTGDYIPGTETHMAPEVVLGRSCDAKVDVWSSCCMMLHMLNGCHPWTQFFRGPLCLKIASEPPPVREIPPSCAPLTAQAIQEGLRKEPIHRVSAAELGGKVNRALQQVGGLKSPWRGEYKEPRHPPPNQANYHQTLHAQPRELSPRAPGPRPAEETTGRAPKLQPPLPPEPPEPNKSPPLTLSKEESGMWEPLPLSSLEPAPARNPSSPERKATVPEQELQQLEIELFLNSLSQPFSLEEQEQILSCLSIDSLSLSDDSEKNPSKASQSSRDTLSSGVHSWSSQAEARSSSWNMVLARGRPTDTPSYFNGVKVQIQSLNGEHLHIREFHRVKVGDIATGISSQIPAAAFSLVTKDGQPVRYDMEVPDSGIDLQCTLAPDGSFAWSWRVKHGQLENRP

The term IC50 denotes the concentration that inhibits the measured activity by half. As to `Cc1cn(-c2cccc(-c3cc([C@]4(O)CCN(C)C4=O)on3)c2)nc1C(N)=O` [Example 192, (R)-1-(3-(5-(3-Hydroxy-1-methyl-2-oxopyrrolidin-3-yl)isoxazol-3-yl)phenyl)-4-methyl-1H-pyrazole-3-carboxamide], the IC50 in experiment [1] (setting [3]) is under 100 nM; in experiment [2] (setting [4]), over 501 nM.
Take `CN1CC[C@@](O)(c2cc(-c3cccc(-n4ccc(C(N)=O)n4)c3)no2)C1=O` [Example 193, (R)-1-(3-(5-(3-Hydroxy-1-methyl-2-oxopyrrolidin-3-yl)isoxazol-3-yl)phenyl)-1H-pyrazole-3-carboxamide]: the values for the half-maximal inhibitory concentration (IC50) in experiment [1] (setting [3]) and in experiment [2] (setting [4]) were under 100 nM and over 501 nM, respectively.
As for `CN1CC[C@@](O)(c2cc(-c3cccc(-n4cc(C(N)=O)cn4)n3)no2)C1=O` [Example 194, (R)-1-(6-(5-(3-Hydroxy-1-methyl-2-oxopyrrolidin-3-yl)isoxazol-3-yl)pyridin-2-yl)-1H-pyrazole-4-carboxamide], the IC50 in experiment [1] (setting [3]) and in experiment [2] (setting [4]) was over 501 nM throughout.
Turning to `CN1CC[C@@](O)(c2cc(-c3cccc(-n4cc(C(N)=O)c(N)n4)n3)no2)C1=O` [Example 195, (R)-3-Amino-1-(6-(5-(3-Hydroxy-1-methyl-2-oxopyrrolidin-3-yl)isoxazol-3-yl)pyridin-2-yl)-1H-pyrazole-4-carboxamide], the IC50 in experiment [1] (setting [3]) is under 100 nM; in experiment [2] (setting [4]), over 501 nM.
With `CN1CC[C@@](O)(c2cc(-c3cccc(-c4cccc5c(=O)[nH]ccc45)n3)no2)C1=O` [Example 196, (R)-5-(6-(5-(3-Hydroxy-1-methyl-2-oxopyrrolidin-3-yl)isoxazol-3-yl)pyridin-2-yl)isoquinolin-1(2H)-one], the IC50 is under 100 nM in experiment [1] (setting [3]) and over 501 nM in experiment [2] (setting [4]).
In the same order, the values of `CN1CC[C@@](O)(c2cc(-c3cccc(-c4cccc5c(=O)[nH]cnc45)c3)no2)C1=O` [Example 197, (R)-8-(3-(5-(3-Hydroxy-1-methyl-2-oxopyrrolidin-3-yl)isoxazol-3-yl)phenyl)quinazolin-4(3H)-one] are over 501 nM and over 501 nM.
The matching figures for `CN1CC[C@@](O)(c2cc(-c3cccc(-c4cc(C(N)=O)ccn4)n3)no2)C1=O` [Example 198, (R)-6′-(5-(3-Hydroxy-1-methyl-2-oxopyrrolidin-3-yl)isoxazol-3-yl)-[2,2′-bipyridine]-4-carboxamide]: 100 to 500 nM and over 501 nM.
The matching figures for `CN1CC[C@@](O)(c2cc(-c3cccc(-c4nc(C(N)=O)cs4)c3)no2)C1=O` [Example 204, (R)-2-(3-(5-(3-Hydroxy-1-methyl-2-oxopyrrolidin-3-yl)isoxazol-3-yl)phenyl)thiazole-4-carboxamide]: under 100 nM and over 501 nM.
As to `CN1CC[C@@](O)(c2cc(-c3cccc(-c4csc(C(N)=O)n4)c3)no2)C1=O` [Example 205, (R)-4-(3-(5-(3-Hydroxy-1-methyl-2-oxopyrrolidin-3-yl)isoxazol-3-yl)phenyl)thiazole-2-carboxamide], the figures for the IC50 in experiment [1] (setting [3]) and in experiment [2] (setting [4]) were under 100 nM and over 501 nM, respectively.
With `CN1CC[C@@](O)(c2cc(-c3cccc(-c4nc(C(N)=O)c(N)s4)c3)no2)C1=O` [Example 206, (R)-5-Amino-2-(3-(5-(3-hydroxy-1-methyl-2-oxopyrrolidin-3-yl)isoxazol-3-yl)phenyl)thiazole-4-carboxamide], the concentration for half-maximal inhibition (IC50) in experiment [1] (setting [3]) and in experiment [2] (setting [4]) was under 100 nM each time.
In the case of `CN1CC[C@@](O)(c2cc(-c3cccc(-c4ccc(C(N)=O)o4)c3)no2)C1=O` [Example 207, (R)-5-(3-(5-(3-Hydroxy-1-methyl-2-oxopyrrolidin-3-yl)isoxazol-3-yl)phenyl)furan-2-carboxamide], the IC50 was under 100 nM in experiment [1] (setting [3]) and over 501 nM in experiment [2] (setting [4]).
Regarding `CN1CC[C@@](O)(c2cc(-c3cccc(-c4nc(C(N)=O)c(C5CC5)s4)c3)no2)C1=O` [Example 208, (R)-5-Cyclopropyl-2-(3-(5-(3-hydroxy-1-methyl-2-oxopyrrolidin-3-yl)isoxazol-3-yl)phenyl)thiazole-4-carboxamide], the IC50 in experiment [1] (setting [3]) is under 100 nM; in experiment [2] (setting [4]), 100 to 500 nM.
In the same order, the values of `CNc1sc(-c2cccc(-c3cc([C@]4(O)CCN(C)C4=O)on3)c2)nc1C(N)=O` [Example 209, (R)-2-(3-(5-(3-Hydroxy-1-methyl-2-oxopyrrolidin-3-yl)isoxazol-3-yl)phenyl)-5-(methylamino)thiazole-4-carboxamide] are under 100 nM and under 100 nM.
`CN1CC[C@@](O)(c2cc(-c3cccc(-c4nc(C(N)=O)c(NC5COC5)s4)c3)no2)C1=O` [Example 210, (R)-2-(3-(5-(3-Hydroxy-1-methyl-2-oxopyrrolidin-3-yl)isoxazol-3-yl)phenyl)-5-(oxetan-3-ylamino)thiazole-4-carboxamide]: the IC50 in experiment [1] (setting [3]) and in experiment [2] (setting [4]) was under 100 nM throughout.
Take `CN1CC[C@@](O)(c2cc(-c3cccc(-c4nc(C(N)=O)c(Nc5cnn(C)c5)s4)c3)no2)C1=O` [Example 211, (R)-2-(3-(5-(3-Hydroxy-1-methyl-2-oxopyrrolidin-3-yl)isoxazol-3-yl)phenyl)-5-((1-methyl-1H-pyrazol-4-yl)amino)thiazole-4-carboxamide]: the IC50 in experiment [1] (setting [3]) and in experiment [2] (setting [4]) was under 100 nM throughout.
On to `CN1CC[C@@](O)(c2cc(-c3cccc(-c4ncc(C(N)=O)s4)c3)no2)C1=O` [Example 212, (R)-2-(3-(5-(3-hydroxy-1-methyl-2-oxopyrrolidin-3-yl)isoxazol-3-yl)phenyl)thiazole-5-carboxamide], for which the IC50 in experiment [1] (setting [3]) and in experiment [2] (setting [4]) was over 501 nM throughout.
For `COc1ncccc1Nc1sc(-c2cccc(-c3cc([C@]4(O)CCN(C)C4=O)on3)c2)nc1C(N)=O` [Example 213, (R)-2-(3-(5-(3-Hydroxy-1-methyl-2-oxopyrrolidin-3-yl)isoxazol-3-yl)phenyl)-5-((2-methoxypyridin-3-yl)amino)thiazole-4-carboxamide], the IC50 in experiment [1] (setting [3]) and in experiment [2] (setting [4]) was under 100 nM each time.
For the molecule `CN1CC[C@@](O)(c2cc(-c3cccc(-c4nc(C(N)=O)c(Br)s4)c3)no2)C1=O` [Example 215, (R)-5-Bromo-2-(3-(5-(3-hydroxy-1-methyl-2-oxopyrrolidin-3-yl)isoxazol-3-yl)phenyl)thiazole-4-carboxamide], the IC50 in experiment [1] (setting [3]) is under 100 nM; in experiment [2] (setting [4]), over 501 nM.
In the same order, the values of `CC(=O)N1CC(Nc2sc(-c3cccc(-c4cc([C@]5(O)CCN(C)C5=O)on4)c3)nc2C(N)=O)C1` [Example 216, (R)-5-((1-Acetylazetidin-3-yl)amino)-2-(3-(5-(3-hydroxy-1-methyl-2-oxopyrrolidin-3-yl)isoxazol-3-yl)phenyl)thiazole-4-carboxamide] are under 100 nM and over 501 nM.
The matching figures for `Cc1sc(-c2cccc(-c3cc([C@]4(O)CCN(C)C4=O)on3)c2)nc1C(N)=O` [Example 217, (R)-2-(3-(5-(3-Hydroxy-1-methyl-2-oxopyrrolidin-3-yl)isoxazol-3-yl)phenyl)-5-methylthiazole-4-carboxamide]: under 100 nM and 100 to 500 nM.
Regarding `CCc1sc(-c2cccc(-c3cc([C@]4(O)CCN(C)C4=O)on3)c2)nc1C(N)=O` [Example 218, (R)-5-Ethyl-2-(3-(5-(3-hydroxy-1-methyl-2-oxopyrrolidin-3-yl)isoxazol-3-yl)phenyl)thiazole-4-carboxamide], the IC50 in experiment [1] (setting [3]) was under 100 nM; in experiment [2] (setting [4]), 100 to 500 nM.
The matching figures for `CC(C)c1sc(-c2cccc(-c3cc([C@]4(O)CCN(C)C4=O)on3)c2)nc1C(N)=O` [Example 219, (R)-2-(3-(5-(3-Hydroxy-1-methyl-2-oxopyrrolidin-3-yl)isoxazol-3-yl)phenyl)-5-isopropylthiazole-4-carboxamide]: under 100 nM and over 501 nM.
In the case of `CC(C)Cc1sc(-c2cccc(-c3cc([C@]4(O)CCN(C)C4=O)on3)c2)nc1C(N)=O` [Example 220, (R)-2-(3-(5-(3-Hydroxy-1-methyl-2-oxopyrrolidin-3-yl)isoxazol-3-yl)phenyl)-5-isobutylthiazole-4-carboxamide], the IC50 in experiment [1] was under 100 nM; in experiment [2] (L-363, 6 h) it was over 501 nM.
On to `CN1CC[C@@](O)(c2cc(-c3cccc(-c4nc(C(N)=O)c(C5CCC5)s4)c3)no2)C1=O` [Example 221, (R)-5-Cyclobutyl-2-(3-(5-(3-hydroxy-1-methyl-2-oxopyrrolidin-3-yl)isoxazol-3-yl)phenyl)thiazole-4-carboxamide], for which the IC50 in experiment [1] (setting [3]) is under 100 nM; in experiment [2] (setting [4]) it was over 501 nM.
As for `CN1CC[C@@](O)(c2cc(-c3cccc(-c4nc(C(N)=O)c(C(F)F)s4)c3)no2)C1=O` [Example 222, (R)-5-(Difluoromethyl)-2-(3-(5-(3-hydroxy-1-methyl-2-oxopyrrolidin-3-yl)isoxazol-3-yl)phenyl)thiazole-4-carboxamide], the half-maximal inhibitory concentration (IC50) in experiment [1] (setting [3]) is under 100 nM; in experiment [2] (setting [4]), 100 to 500 nM.
In the same order, the values of `CN1CC[C@@](O)(c2cc(-c3cccc(-c4nc(C(N)=O)c(CNC5CCCC5)s4)c3)no2)C1=O` [Example 223, (R)-5-((Cyclopentylamino)methyl)-2-(3-(5-(3-hydroxy-1-methyl-2-oxopyrrolidin-3-yl)isoxazol-3-yl)phenyl)thiazole-4-carboxamide] are under 100 nM and over 501 nM.
